Measured values taken from patent US20040062744A1, “Bactericidal disinfectant, antibacterial drug, and antibacterial material” (NICCA CHEMICAL CO., LTD., priority 2003, published 2004).

Experiments:
[1] = test system: Staphyrococcus aureus (S. aureus, ATCC 6538P); test: Minimum bactericidal concentration (disinfecting effect), 1 minute contact; type: cell-based; conditions: contact 1 minute, culture 37° C. 20 hours
Protocol: (§1) The disinfecting effect was evaluated in accordance with the following methods.
(§2) Seven microorganisms, i.e., Staphyrococcus aureus (S. aureus, ATCC 6538P), methicillin-resistant S. aureus (MRSA IID 1677), methicillin-resistant S. aureus (MRSA of a clinically isolated strain), Escherichia coli (E. coli, IFO 3301), Klebsiella pneumoniae (pneumoniae, IFO ATCC 4352), Pseudomonus aeruginosa (P. aeruginosa, IFO 3080) and Serratia marcescens (S. marcescens of a clinically isolated strain), were used for the test.
(§3) A test microorganism in an inoculating loop to streak a portion of 8 ml of a culture medium of soybean casein digest (SCD) on the surface and cultured at 37° C. for 18 hours. The obtained medium in an amount of 1 ml was diluted with the SCD culture medium to 1/10 of the original concentration. The diluted medium in an amount of 2 ml was brought into contact with 100 ml of the SCD culture medium. The obtained medium was cultured at 37° C. for 2 hours except that the medium containing P. aeruginosa was cultured for 4 hours and a liquid of a test microorganism was prepared. The liquid of a test microorganism contained 10^6 to 10^8 live microorganisms per 1 ml of the liquid.
(§4) A series of solutions containing a composition of a sterilizing disinfectant were prepared by dilution with a physiological saline in a manner such that each solution was diluted to one half the concentration to prepare a solution having the next lower concentration. The solutions of a series each in an amount of 10 ml were separately placed into test tubes, treated for disinfection in an autoclave and mixed with a liquid of a test microorganism in an amount of 0.1 ml. After the sterilizing disinfectant and the test microorganism were kept in contact with each other for 1 minute, the obtained liquid for inoculation in an amount of 0.1 ml was added to each of three SCD-LP (lecithin polysolvate) culture media (9 ml, each) which had been disinfected in advance. After the inoculated media were cultured at 37° C. for 20 hours, the presence or the absence of turbidity in the media was examined. When the medium was transparent, it was decided that no growth of the microorganism could be recognized and the result for this medium was expressed as −. When the medium was turbid, it was decided that growth of the microorganism could be recognized and the result for this medium was expressed as+. […] The minimum concentration of the composition of a sterilizing disinfectant which gave the result of − was used as the minimum bactericidal concentration (MBC).

[2] = test system: Klebsiella pneumoniae (pneumoniae, IFO ATCC 4352); test: as above; type: cell-based; conditions: K. pneumoniae; contact 1 minute; culture 37° C. 20 hours
Protocol: as §1, §2, §3, §4

[3] = test system: methicillin-resistant S. aureus (MRSA IID 1677); test: as above; type: cell-based; conditions: contact 1 minute, culture 37° C. 20 hours
Protocol: as §1, §2, §3, §4

[4] = test system: Escherichia coli (E. coli, IFO 3301); test: as above; type: cell-based; conditions: contact 1 minute, culture 37° C. 20 hours
Protocol: as §1, §2, §3, §4

[5] = test system: methicillin-resistant S. aureus (MRSA of a clinically isolated strain); test: as above; type: cell-based; conditions: contact 1 minute, culture 37° C. 20 hours
Protocol: as §1, §2, §3, §4

[6] = test system: Pseudomonus aeruginosa (P. aeruginosa, IFO 3080); test: as above; type: cell-based; conditions: contact 1 minute, culture 37° C. 20 hours
Protocol: as §1, §2, §3, §4

[7] = test system: Serratia marcescens (S. marcescens of a clinically isolated strain); test: as above; type: cell-based; conditions: contact 1 minute, culture 37° C. 20 hours
Protocol: as §1, §2, §3, §4

[8] = Test of skin stimulation (sealed filter paper on inner side of left upper arm); type: in vivo, human; design: key to primary stimulation (skin stimulation): −: negative (no reaction); ±: rubedo alone; +: rubedo and humectation or papula; ++: rubedo, edema and marked papula or small blisters; conditions: for primary stimulation (skin stimulation): 0.02 ml, one per person
Protocol: The test of skin stimulation was conducted in accordance with the following method.
A sterilizing disinfectant in an amount of 0.02 ml was placed on a filter paper and attached to a portion at the inner side of the left upper arm of a person in a manner such that the paper was sealed. The test was conducted with five male persons (A to E) and five female persons (F to J). The primary stimulation was evaluated 30 minutes and 24 hours after the attachment of the paper and the result was classified into four levels. The criterion for the classification was as follows:
Criterion for the Classification
−: negative (no reaction)
+: rubedo and humectation or papula
++: rubedo, edema and marked papula or small blisters

Row | Substance | Minimum batericidal concentration [1] [ppm] | Minimum batericidal concentration [2] [ppm] | Minimum batericidal concentration [3] [ppm] | Minimum batericidal concentration [4] [ppm] | Minimum batericidal concentration [5] [ppm] | Minimum batericidal concentration [6] [ppm] | Minimum batericidal concentration [7] [ppm] | primary stimulation (skin stimulation) ([8]; 30 minutes after attachment) | primary stimulation (skin stimulation) ([8]; 24 hours after attachment) | skin disorder ([8]; summary in words of the test of skin stimulation)
1 | benzalkonium chloride [Comparative Example 4] | 32 | 64 | 32 | 64 | 64 | 250 | 64 |  |  | 
2 | benzalkonium chloride [Comparative Example 5] |  |  |  |  |  |  |  | − and ± | + and ++ | marked skin disorder
